Data reported in patent US11780895B2, “Targeted DNA demethylation and methylation” (The Jackson Laboratory, priority 2016, dated 2023).

Test system: hMLH1
Experiment: hMLH1 mRNA levels by TaqMan qRT-PCR in transfected HEK293T cells
Format: cell-based, human
Settings: for activation of hMLH1 by dCas9 direct fusions (relative change in mRNA levels): same combination of sgRNAs as Casilio-ME; for hMLH1 expression, fold over background (change in mRNA levels): sgRNAs 3+7, 60 hours post-transfection, GAPDH normalised
Experimental: To test the system, HEK293T cells were transfected with Casilio-ME components including Ct or Nt-fusion TET1-effector and a combination of 3 or 2 sgRNAs. Relative levels of hMLH1 mRNA were determined in TaqMan assays by using RNA extracted from cells 60 hours post-transfection and GAPDH as endogenous control for normalization of qRT-PCR measurements.
Cell culture and transfection. HEK293T cells were cultivated in Dulbecco's modified Eagle's medium (DMEM)(Sigma) with 10% fetal bovine serum (FBS)(Lonza), 4% Glutamax (Gibco), 1% Sodium Pyruvate (Gibco) and penicillin-streptomycin (Gibco) in an incubator set to 37° C. and 5% CO2. When indicated cells were treated with 2.5 μM or 5 μM 5-Azacytidine (sigma) as indicated with a daily change of medium containing freshly diluted drug. Cells were seeded into 12-well plates at 150,000 cells per well the day before being transfected with 100 ng of dCas9 construct, 100 ng of modified sgRNA construct and 200 ng of PUF-fusion with Attractene transfection reagent according to manufacturer's instructions (Qiagen). In dCas9-direct fusion experiments, cells were transfected with 200 ng dCas9-fusion constructs and 200 ng of modified sgRNA constructs. Transfected cells were harvested 60 hours after transfection, or otherwise indicated, and cell pellets were used for extractions of RNA, genomic DNA and protein.
Quantitative RT-PCR analysis. Cells were harvested, washed with Dulbecco's phosphate-buffered saline (dPBS), centrifuged at 125×g for 5 min and then the flash-frozen pellets were stored at −80° C. RNA was extracted using RNeasy Plus Mini Kit according to the manufacturer's instructions (Qiagen). cDNA libraries were made using Applied Biosystems High Capacity RNA-to-cDNA kit with 200 ng to 1 μg of RNA. TaqMan gene expression assays (Applied Biosystems) were designed using GAPDH (Hs03929097, VIC) as endogenous control and hMLH1 (Hs00179866, FAM) as target. TaqMan Universal Master Mix II, with UNG (Applied Biosystems) was used for Quantitative PCR (qPCR), with 2 μl of diluted cDNA used for each reaction. Activation was analyzed with the Applied Biosystems ViiA7 instrument. Gene expression levels were calculated by “delta delta Ct” algorithm and normalized to control samples.

Molecule: TET1(CD)-dCas9: direct fusion of TET1(CD) to the N-terminus of dCas9
- activation of hMLH1 by dCas9 direct fusions (relative change in mRNA levels) (HEK293T): much weaker activation than its respective C-terminal fusion

Molecule: dCas9-TET1(CD): direct fusion of TET1(CD) to the C-terminus of dCas9
- activation of hMLH1 by dCas9 direct fusions (relative change in mRNA levels) (HEK293T): relatively weak activation
- hMLH1 activation relative to dCas9-p65HSF1 (HEK293T, same sgRNA combination): at best twice the activity obtained with transcription activator dCas9 fusion
- hMLH1 expression, fold over background (change in mRNA levels) (HEK293T): 19 fold
- hMLH1 activation as percentage of the activation obtained using Casilio-ME (same sgRNAs combination, parallel experiment): about 14%

B1: TET1(CD)-PUFa: hTET1 catalytic domain fused to the N-terminus of PUFa (protein)
chain: MGPAELPTCSCLDRVIQKDKGPYYTHLGAGPSVAAVREIMENRYGQKGNAIRIEIVVYTGKEGKSSHGCPIAKWVLRRSSDEEKVLCLVRQRTGHHCPTAVMVVLIMVWDGIPLPMADRLYTELTENLKSYNGHPTDRRCTLNENRTCTCQGIDPETCGASFSFGCSWSMYFNGCKFGRSPSPRRFRIDPSSPLHEKNLEDNLQSLATRLAPIYKQYAPVAYQNQVEYENVARECRLGSKEGRPFSGVTACLDFCAHPHRDIHNMNNGSTVVCTLTREDNRSLGVIPQDEQLHVLPLYKLSDTDEFGSKEGMEAKIKSGAIEVLAPRRKKRTCFTQPVPRSGKKRAAMMTEVLAHKIRAVEKKPIPRIKRKNNSTTTNNSKPSSLPTLGSNTETVQPEVKSETEPHFILKSSDNTKTYSLMPSAPHPVKEASPGFSWSPKTASATPAPLKNDATASCGFSERSSTPHCTMPSGRLSGANAAAADGPGISQLGEVAPLPTLSAPVMEPLINSEPSTGVTEPLTPHQPNHQPSFLTSPQDLASSPMEEDEQHSEADEPPSDEPLSDDPLSPAEEKLPHIDEYWSDSEHIFLDANIGGVAIAPAHGSVLIECARRELHATTPVEHPNRNHPTRLSLVFYQHKNLNKPQHGFELNKIKFEAKEAKNKKMKASEQKDQAANEGPEQSSEVNELNQIPSHKALTLTHDNVVTVSPYALTHVAGPYNHWVIDGGGGSDPKKKRKVDPKKKRKVDPKKKRKVGSTGSRNDGGGGSGGGGSGGGGSGRAGILPPKKKRKVSRGRSRLLEDFRNNRYPNLQLREIAGHIMEFSQDQHGSRFIQLKLERATPAERQLVFNEILQAAYQLMVDVFGNYVIQKFFEFGSLEQKLALAERIRGHVLSLALQMYGSRVIEKALEFIPSDQQNEMVRELDGHVLKCVKDQNGNHVVQKCIECVQPQSLQFIIDAFKGQVFALSTHPYGCRVIQRILEHCLPDQTLPILEELHQHTEQLVQDQYGNYVIQHVLEHGRPEDKSKIVAEIRGNVLVLSQHKFASNVVEKCVTHASRTERAVLIDEVCTMNDGPHSALYTMMKDQYANYVVQKMIDVAEPGQRKIVMHKIRPHIATLRKYTYGKHILAKLEKYYMKNGVDLGDPKKKRKVDPKKKRKVGGRGGGGSGGGGSGGGGSGPA
- hMLH1 expression, fold over background (change in mRNA levels) (HEK293T): ≤ 20 fold

B2: PUFa-TET1(CD): hTET1 catalytic domain (residues 1418 to 2136) fused to the C-terminus of PUFa (protein)
chain: MIDGGGGSDPKKKRKVDPKKKRKVDPKKKRKVGSTGSRNDGGGGSGGGGSGGGGSGRAGILPPKKKRKVSRGRSRLLEDFRNNRYPNLQLREIAGHIMEFSQDQHGSRFIQLKLERATPAERQLVFNEILQAAYQLMVDVFGNYVIQKFFEFGSLEQKLALAERIRGHVLSLALQMYGSRVIEKALEFIPSDQQNEMVRELDGHVLKCVKDQNGNHVVQKCIECVQPQSLQFIIDAFKGQVFALSTHPYGCRVIQRILEHCLPDQTLPILEELHQHTEQLVQDQYGNYVIQHVLEHGRPEDKSKIVAEIRGNVLVLSQHKFASNVVEKCVTHASRTERAVLIDEVCTMNDGPHSALYTMMKDQYANYVVQKMIDVAEPGQRKIVMHKIRPHIATLRKYTYGKHILAKLEKYYMKNGVDLGDPKKKRKVDPKKKRKVGGRGGGGSGGGGSGGGGSGPAELPTCSCLDRVIQKDKGPYYTHLGAGPSVAAVREIMENRYGQKGNAIRIEIVVYTGKEGKSSHGCPIAKWVLRRSSDEEKVLCLVRQRTGHHCPTAVMVVLIMVWDGIPLPMADRLYTELTENLKSYNGHPTDRRCTLNENRTCTCQGIDPETCGASFSFGCSWSMYFNGCKFGRSPSPRRFRIDPSSPLHEKNLEDNLQSLATRLAPIYKQYAPVAYQNQVEYENVARECRLGSKEGRPFSGVTACLDFCAHPHRDIHNMNNGSTVVCTLTREDNRSLGVIPQDEQLHVLPLYKLSDTDEFGSKEGMEAKIKSGAIEVLAPRRKKRTCFTQPVPRSGKKRAAMMTEVLAHKIRAVEKKPIPRIKRKNNSTTTNNSKPSSLPTLGSNTETVQPEVKSETEPHFILKSSDNTKTYSLMPSAPHPVKEASPGFSWSPKTASATPAPLKNDATASCGFSERSSTPHCTMPSGRLSGANAAAADGPGISQLGEVAPLPTLSAPVMEPLINSEPSTGVTEPLTPHQPNHQPSFLTSPQDLASSPMEEDEQHSEADEPPSDEPLSDDPLSPAEEKLPHIDEYWSDSEHIFLDANIGGVAIAPAHGSVLIECARRELHATTPVEHPNRNHPTRLSLVFYQHKNLNKPQHGFELNKIKFEAKEAKNKKMKASEQKDQAANEGPEQSSEVNELNQIPSHKALTLTHDNVVTVSPYALTHVAGPYNHWVID
- time course of activation of hMLH1 transcription (HEK293T, RNA guides 3 and 7, 3, 4, 5 and 6 days post transfection): maintained during the course of these transient transfections
- hMLH1 expression, fold over background (change in mRNA levels) (HEK293T): 135 fold
